pIC50: −log10 of the molar value.
Biological target: Poly [ADP-ribose] polymerase 1 (Homo sapiens, UniProt P09874)
Test: Inhibition of PARP1 (unknown origin)

Sequence of Poly [ADP-ribose] polymerase 1 (P09874 whole entry): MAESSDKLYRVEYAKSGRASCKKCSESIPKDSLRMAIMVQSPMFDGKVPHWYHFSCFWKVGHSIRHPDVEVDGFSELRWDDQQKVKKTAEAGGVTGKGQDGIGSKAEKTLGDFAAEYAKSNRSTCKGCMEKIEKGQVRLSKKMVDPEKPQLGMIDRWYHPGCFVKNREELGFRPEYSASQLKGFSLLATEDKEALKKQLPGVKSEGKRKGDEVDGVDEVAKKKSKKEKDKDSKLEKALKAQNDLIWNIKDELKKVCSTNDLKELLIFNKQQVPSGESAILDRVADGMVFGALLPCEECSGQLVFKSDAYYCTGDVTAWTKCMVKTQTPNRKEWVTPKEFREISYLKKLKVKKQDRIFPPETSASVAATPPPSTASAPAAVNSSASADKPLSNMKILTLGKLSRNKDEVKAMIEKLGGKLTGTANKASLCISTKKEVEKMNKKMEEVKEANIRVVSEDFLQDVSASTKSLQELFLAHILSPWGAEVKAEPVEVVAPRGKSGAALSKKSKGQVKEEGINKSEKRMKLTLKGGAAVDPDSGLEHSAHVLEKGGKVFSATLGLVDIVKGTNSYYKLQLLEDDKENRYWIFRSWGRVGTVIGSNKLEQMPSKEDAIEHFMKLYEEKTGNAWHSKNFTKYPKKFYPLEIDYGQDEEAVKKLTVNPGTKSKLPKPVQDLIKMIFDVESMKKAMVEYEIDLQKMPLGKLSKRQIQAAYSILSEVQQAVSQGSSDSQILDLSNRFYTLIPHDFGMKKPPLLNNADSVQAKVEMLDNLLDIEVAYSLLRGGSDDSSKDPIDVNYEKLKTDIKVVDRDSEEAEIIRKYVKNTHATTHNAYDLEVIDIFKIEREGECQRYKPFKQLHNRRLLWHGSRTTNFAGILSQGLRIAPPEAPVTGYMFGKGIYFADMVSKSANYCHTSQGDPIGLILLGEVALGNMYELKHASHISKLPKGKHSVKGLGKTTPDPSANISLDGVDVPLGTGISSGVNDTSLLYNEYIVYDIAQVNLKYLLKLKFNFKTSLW

pIC50: 6.59
SMILES: O=c1cc(O)cc2oc(-c3ccc(O)c(-c4c(O)cc(O)c5c(=O)cc(-c6ccc(O)cc6)oc45)c3)cc(O)c1-2

Source: BindingDB's records for PubMed 34843914 (China Pharmaceutical University, 2022)
